According to patent publication US20020120098A1, “Enhanced stimulation of erythropoiesis” (priority 1996, published 2002):
Entries after “also recorded” stand apart in the source; their conditions may differ.

Legend:
Assay type in all cases: cell-based, human
[1] = test system: total erythroid progenitors (BFU-E+CFU-E); test: Inhibition of succinylacetone (SA) toxicity to erythroid progenitors in CFA; details: 0.5 mM SA; 100 μM hemin, 15.6 μM HAo or HEMOLINK, 250 μM FeCl3; ambient O2, 14 days
Experimental: The effect of the various additives on the inhibitory effect of succinylacetone (SA), a heme synthesis inhibitor, on erythroid progenitors was determined. Primary LDMNC were cultured in methyl cellulose as described in Example 1. Cord blood LDMN were plated in the presence of 1.0 mg/ml HAo (15.6 μM; n=12) or HEMOLINK™ (15.6 μM; n=5), 100 μM hemin (n=12), 250 μM FeCl3 (n=11) or no addition (n=12), in absence or presence of 0.5 mM SA. Cultures were maintained in a humidified chamber at 37° C., 5% CO2, and ambient oxygen tensions for 14 days.
Results are expressed as the number of total erythroid progenitors (BFU-E+CFU-E) present on plates treated with the various additives in the presence of SA relative to the number present on untreated plates (no SA or other addition). Significant differences in the presence of the respective additives compared to no addition (SA only; relative progenitor number=0.31) are as indicated: *p<0.001, **p<0.0001. Significant differences in the presence of the respective additives compared to no treatment (no SA; solid line at relative erythroid progenitor number=1.0) are as indicated: +p<0.05, ++p<0.001.

erythroid colonies = test: Hemoglobin production by erythroid colonies, anion exchange HPLC; details: 5% O2, 2 U/ml Epo; for adult Hb / fetal Hb / total Hb: 100 μM hemin, 1.0 mg/ml HAo or HEMOLINK, 250 μM FeCl3; for adult Hb per cell / fetal Hb per cell / total Hb per cell: estimated assuming 30,000 cells/BFU-E and 100 cells/CFU-E
Experimental: Hemoglobin synthesis in erythroid colonies was analyzed by anion exchange high performance liquid chromatography (HPLC). Colonies were harvested from CFA plates and cell lysates were prepared after the progenitor colonies had been enumerated. Colonies were isolated from methyl cellulose by several washes in PBS. The cells were pelleted and lysed in 50 mM Tris, pH 8.8 and the cell debris removed by pelleting the cell lysate. The lysate supernatants were filtered through a 0.2 ,μm filter prior to loading onto a POROS® HQ/H anion exchange HPLC column (PerSeptive Biosystems). The hemoglobin was eluted with an increasing NaCl gradient and the optical density (O.D.) monitored at a wavelength of 414 nm The amount of hemoglobin present in the lysates was quantitated by comparison with standard hemoglobin solutions of adult (HbA) and fetal hemoglobin (HbF).
Representative HPLC profiles for hemoglobin produced by erythroid colonies that formed at 5% O2 in the presence of 2 U/ml Epo with no addition (vehicle only), 100 μM hemin, 1.0 mg/ml HAo (15.6 μM) HAo, 1.0 mg/ml HEMOLINK™ (15.6 μM), or 250 μM FeCl3 are shown in FIG. 7.

CFU-E = test: Colony formation assay, adult peripheral blood LDMNC: CFU-E; details: for fold increase in CFU-E, adult blood, 0.2 U/ml Epo: ~20% O2, compared to untreated controls (no addition) at 0.2 U/ml Epo; for increase in number of CFU-E progenitors, adult blood, ambient O2 (in words): 2 U/ml Epo
Experimental: (§1) Blood was collected with informed consent from the antecubital vein of healthy adult human volunteers into vacutainers containing 143 USP U/ml sodium heparin. Low density mononuclear cells (LDMNC) were isolated by centrifugation over a density gradient as described in Example 1. Plastic adherent cells were removed by an overnight incubation in a tissue culture flask and the non-adherent cells were placed directly in a CFA. Conditions for the CFA are similar to those described in Examples 1-4.
The mean fold increase in adult blood BFU-E, CFU-E and CFU-GM progenitor number produced by 1.0 mg/ml HAo (15.6 μM) or HEMOLINK™ (15.6 μM), 100 μM hemin or 250 μM FeCl3 is shown in FIG. 9 (n=3). Cultures were maintained at ambient oxygen tensions (˜20% O2) for 14 days. The fold increase in colonies is expressed relative to control cells treated only with the respective vehicles. […] The magnitude of this increase was greater for adult than cord blood LDMNC.
The mean fold increase in adult blood BFU-E, CFU-E and CFU-GM progenitor number at 5% O2 is shown in FIG. 10 with the same additives. Results are expressed relative to control cells treated only with the respective vehicles and cultured at ambient oxygen tensions (˜20% O2). Reduced oxygen tensions (5% O)2 enhanced the growth of BFU-E which was further increased by the addition of HAo, HEMOLINK™, hemin or FeCl3. All agents stimulated a similar increase in BFU-E number (˜9-11-fold) at 5% O2 compared to untreated control cells at ambient oxygen tensions.
(§2) Mean fold increase in adult blood BFU-E, CFU-E and CFU-GM progenitor number in the presence of reduced Epo (0.2 U/ml) (n=3) at 20% O2 is shown in FIG. 11 with and without (no addition) the additives used in FIG. 9. Results are expressed relative to control cells at 2 U/ml Epo treated only with the respective vehicles (solid line at fold expansion=1.0). […] As with cord blood, CFU-GM numbers were unaffected by reductions in Epo. The addition of HAo or HEMOLINK™ to CFAs containing 0.2 U/ml Epo stimulated ˜4.5- and ˜3.5-fold increases in BFU-E and CFU-E, respectively, compared to untreated controls (no addition), restoring the progenitor number to that obtained at 2 U/ml Epo. Hemin stimulated the greatest increase in BFU-E and CFU-E (˜9- and ˜6-fold, respectively) at 0.2 U/ml Epo versus the untreated controls (no addition). FeCl3 stimulated only a ˜2-fold increase in erythroid progenitor number at 0.2 U/ml Epo.
(§3) Mean fold increase in adult blood BFU-E, CFU-E and CFU-GM progenitor number at 5% O2 in the presence of reduced Epo (0.2 U/ml) (n=3) is shown in FIG. 12 with and without the additives used in FIG. 9. Results are expressed relative to control cells at 2 U/ml Epo treated only with the respective vehicles and cultured at ambient oxygen tensions (˜20% O2) for 14 days (solid line at fold expansion=1.0). The number of erythroid progenitors stimulated at 5% O2 and 0.2 U/ml Epo was similar to that obtained with 2.0 U/ml Epo maintained at ambient oxygen tensions (no addition).

erythroid progenitors = test: Colony formation assay, adult peripheral blood LDMNC: erythroid progenitors overall; details: for growth of erythroid progenitors in the absence of Epo, adult blood: 0 U/ml Epo; for erythroid progenitor number, adult blood, 5% O2 and 0.2 U/ml Epo (in words): 5% O2, 0.2 U/ml Epo, over untreated controls under the same conditions
Experimental: as §1, §2, §3

Compound	reversal of inhibitory effect of SA on erythroid progenitors (in words) [1]	adult Hb (erythroid colonies)	fetal Hb (erythroid colonies)	total Hb (erythroid colonies)	adult Hb per cell (erythroid colonies)	fetal Hb per cell (erythroid colonies)	total Hb per cell (erythroid colonies)	fold increase in CFU-E, adult blood, 0.2 U/ml Epo (CFU-E)	increase in number of CFU-E progenitors, adult blood, ambient O2 (in words) (CFU-E)	growth of erythroid progenitors in the absence of Epo, adult blood (erythroid progenitors)	erythroid progenitor number, adult blood, 5% O2 and 0.2 U/ml Epo (in words) (erythroid progenitors)	fold increase in erythroid progenitor number, adult blood, 0.2 U/ml Epo (erythroid progenitors; 0.2 U/ml Epo, ~20% O2, 250 μM FeCl3)
HEMOLINK™: chemically crosslinked hemoglobin prepared by treating human hemoglobin with a polyaldehyde (O-raffinose)	unable to fully restore erythroid progenitor numbers	20.5 µg	28.0 µg	48.5 µg	0.38 pg/cell	0.51 pg/cell	0.89 pg/cell	~3.5 fold	slight increases	could not support the growth of erythroid progenitors in the absence of Epo	stimulated further increases in erythroid progenitor number	–
[Cl][Fe]([Cl])[Cl] [FeCl3]	less effective than lower concentrations of hemoglobin; also recorded: unable to overcome the inhibitory effect of SA	5.0 µg	9.5 µg	14.5 µg	0.14 pg/cell	0.26 pg/cell	0.40 pg/cell	–	–	could not support the growth of erythroid progenitors in the absence of Epo	–	~2 fold
HAo: adult human hemoglobin obtained from red blood cells and purified by displacement chromatography; uncross linked product	partially able to overcome the inhibitory effect of SA; also recorded: could partially reverse the SA toxicity	22.6 µg	33.1 µg	55.7 µg	0.37 pg/cell	0.54 pg/cell	0.91 pg/cell	~3.5 fold	slight increases	could not support the growth of erythroid progenitors in the absence of Epo	stimulated further increases in erythroid progenitor number	–
C=CC1=C(C)C2=Cc3c(C=C)c(C)c4[n]3[Fe-2]35([Cl])[n]6c(c(C)c(CCC(=O)O)c6=CC6=[N+]3C(=C4)C(C)=C6CCC(=O)O)=CC1=[N+]25 [hemin]	able to completely overcome the SA inhibition of erythroid colonies; also recorded: able to overcome the inhibitory effect of SA	8.7 µg	19.4 µg	28.1 µg	0.14 pg/cell	0.32 pg/cell	0.46 pg/cell	~6 fold	slight increases	could not support the growth of erythroid progenitors in the absence of Epo	stimulated further increases in erythroid progenitor number	–
